Results from paper PMC3602417 (MedChemComm, 2013).
Like-named read-outs stand apart in the source and are kept apart here.

Key:
[1] = biological target: T1, VMAT2 (Rattus norvegicus, UniProt Q01827); assay: inhibition of [3H]DA uptake into rat striatal synaptic vesicles; type: biochemical
[2] = biological target: T1, VMAT2; settings: read-out: [3H]DTBZ Ki ± SEM; Table 1; rat synaptic vesicle membranes; ref 12b; cited from earlier work
[3] = system: METH-evoked DA release; settings: cited from earlier work
[4] = system: nAChRs; settings: cited from earlier work
[5] = system: rats; settings: cited from earlier work
[6] = biological target: T1, VMAT2; settings: cited from earlier work
[7] = system: rats; settings: cited from earlier work; remark: listed apart in the source
[8] = system: rats; settings: cited from earlier work; remark: listed apart in the source
[9] = system: rats; settings: cited from earlier work; remark: listed apart in the source
[10] = cited from earlier work
[11] = water solubility; type: physicochemical
[12] = system: rats; assay: METH self-administration; type: in vivo, rat; settings: preliminary data
[13] = biological target: T1, VMAT2; assay: [3H]DTBZ binding to rat synaptic vesicle membranes

T1 sequence (Q01827 whole entry): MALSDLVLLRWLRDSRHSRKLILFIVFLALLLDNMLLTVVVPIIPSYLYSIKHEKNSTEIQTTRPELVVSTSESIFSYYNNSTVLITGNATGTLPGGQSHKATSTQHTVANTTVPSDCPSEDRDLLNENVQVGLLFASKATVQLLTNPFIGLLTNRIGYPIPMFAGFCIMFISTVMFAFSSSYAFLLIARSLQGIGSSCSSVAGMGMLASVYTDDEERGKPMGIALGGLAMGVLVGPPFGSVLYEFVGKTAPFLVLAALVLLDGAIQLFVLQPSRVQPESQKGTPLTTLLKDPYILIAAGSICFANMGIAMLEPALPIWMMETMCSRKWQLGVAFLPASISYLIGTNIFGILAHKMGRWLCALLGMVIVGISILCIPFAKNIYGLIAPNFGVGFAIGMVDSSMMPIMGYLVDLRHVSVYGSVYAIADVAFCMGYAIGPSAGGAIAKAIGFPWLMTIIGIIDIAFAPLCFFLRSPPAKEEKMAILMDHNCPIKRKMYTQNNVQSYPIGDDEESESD

## N#CCN1[C@@H](CCc2ccccc2)CCC[C@H]1CCc1ccccc1 [Compound 8]
[1]; relative to lobelane
  fold lower potency in inhibiting [3H]DA uptake at VMAT2 compared to lobelane: 100 fold

## CCCN1[C@@H](CCc2ccccc2)CCC[C@H]1CCc1ccccc1 [Compound 5]
[2]
  Ki: 1.87 ± 0.25 µM

## CN1[C@@H](CC(=O)c2ccccc2)CCC[C@H]1C[C@H](O)c1ccccc1 [Compound 1, (−)-lobeline]
[3]; rat striatal slices
  effect on METH-evoked DA release: inhibits METH-evoked DA release from rat striatal slices
[4]; α4β2* subtype
  affinity at nAChR α4β2* subtype: high affinity
[5]
  effect on METH-induced behavioral effects: attenuates METH-induced behavioral effects

## c1ccc(CC[C@H]2CCC[C@@H](CCc3ccccc3)N2)cc1 [Compound 3, nor-lobelane]
[6]
  potency for VMAT2 binding and inhibition relative to lobelane: equal potency to lobelane

## COc1ccc(CC[C@H]2CCC[C@@H](CCc3ccc(OC)cc3)N2C[C@@H](O)CO)cc1 [Compound 19a]
[3]; vesicles and striatal slices
  effect on METH-evoked DA release: decreasing METH-evoked DA release from vesicles and striatal slices without intrinsic activity
[7]; compared to lobeline and lobelane
  duration of action to inhibit METH SA within a behavioral session: significantly increased duration of action
[7]; rats
  effect on METH SA: effectively decreases
[7]; repeated dosing
  tolerance to decrease of METH SA and CPP after repeated dosing: not observed
[8]
  effect on METH CPP: effectively decreases
[9]
  effect on food-maintained responding: without altering food-maintained responding
[10]
  CPP produced by the compound (abuse liability): does not produce CPP
  self-administration of the compound (abuse liability): not self-administered

## CN1[C@@H](CCc2ccccc2)CCC[C@H]1CCc1ccccc1 [Compound 2, lobelane, reference compound]
[11]
  water solubility: low water solubility
[7]; rats
  effect on METH self-administration (SA): dose-dependently decreases METH self-administration
[9]
  effect on food-maintained responding: without altering food-maintained responding
[4]; compared to lobeline
  activity at nAChRs: negligible activity

## CCN1[C@@H](CCc2ccccc2)CCC[C@H]1CCc1ccccc1 [Compound 4]
[2]
  Ki: 3.41 ± 0.67 µM

## OC[C@H](O)CN1[C@@H](CCc2ccccc2)CCC[C@H]1CCc1ccccc1 [Compound 14a]
[12]
  effect on METH SA, preliminary in vivo screens: decrease in METH SA in rats

## CN(C)N1[C@@H](CCc2ccccc2)CCC[C@H]1CCc1ccccc1 [Compound 13]
[13]
  affinity at the [3H]DTBZ binding site: no affinity
[1]
  potency inhibiting [3H]DA uptake at VMAT2 relative to lobelane: equipotent to lobelane
